Tests used:
[1] = tested on: Human Peripheral Blood Mononuclear Cells (PBMC) or Enriched Adherent Mononuclear Cells; assay: Cell assay: IL-1β assay with human PBMC or enriched adherent mononuclear cells; assay type: cell-based; settings: LPS-stimulated cells, mature IL-1β in supernatant by ELISA
Procedure, shortened: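 Human PBMC (suspension at 6×10^6 cells/ml) or adherent monocytes enriched by 1 h plating (2.5−3.0×10^5 cells/well) were stimulated with 5 ng/ml LPS (final) plus compound (5-6 dilutions, 0.1% DMSO final) for 16-18 hr at 37° C. Mature IL-1β in supernatants quantified by ELISA; duplicate cultures, duplicate ELISAs.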

ICE = molecular target: T1, ICE (Homo sapiens, UniProt P29466); assay: Enzyme assay with UV-visible substrate (Succinyl-Tyr-Val-Ala-Asp-pNitroanilide); assay type: biochemical
T1 sequence (P29466 120-297 limits assumed): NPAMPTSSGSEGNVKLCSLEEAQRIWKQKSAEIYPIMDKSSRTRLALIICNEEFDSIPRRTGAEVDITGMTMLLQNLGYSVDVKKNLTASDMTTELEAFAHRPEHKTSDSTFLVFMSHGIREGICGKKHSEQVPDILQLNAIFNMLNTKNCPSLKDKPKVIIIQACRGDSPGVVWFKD
T1 sequence (P29466 317-404 limits assumed): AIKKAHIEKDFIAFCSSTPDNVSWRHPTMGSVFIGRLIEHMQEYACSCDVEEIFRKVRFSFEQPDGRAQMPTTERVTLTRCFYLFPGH
Experimental: 1. Enzyme Assay with UV-Visible Substrate
This assay is run using an Succinyl-Tyr-Val-Ala-Asp-pNitroanilide substrate. Synthesis of analogous substrates is described by L. A. Reiter (Int. J. Peptide Protein Res. 43, 87-96 (1994)). The assay mixture contains:
The visible ICE assay is run in a 96-well microtiter plate. Buffer, ICE and DMSO (if inhibitor is present) are added to the wells in the order listed. The components are left to incubate at room temperature for 15 minutes starting at the time that all components are present in all wells. The microtiter plate reader is set to incubate at 37° C. After the 15 minute incubation, substrate is added directly to the wells and the reaction is monitored by following the release of the chromophore (pNA) at 405-603 nm at 37° C. for 20 minutes. A linear fit of the data is performed and the rate is calculated in mOD/min. DMSO is only present during experiments involving inhibitors, buffer is used to make up the volume to 100 μl in the other experiments.
For determination of enzyme inhibition constants (Ki) or the mode of inhibition (competitive, uncompetitive or noncompetitive), the rate data determined in the enzyme assays at varying inhibitor concentrations are computer-fit to standard enzyme kinetic equations (see I. H. Segel, Enzyme Kinetics, Wiley-Interscience, 1975).

[2] = Homo sapiens, PBMC, Example 4 table
[3] = Homo sapiens, PBMC, Example 6 table

melting point | Ki (ICE; Example 6 table) [µM] | Compound | IC50 [1, 2] [µM] | IC50 [1, 3] [µM] | other results
165 to 168 °C |  | CC(=O)N[C@@H](Cc1ccc(O)cc1)C(=O)N[C@H](C(=O)N[C@@H](C)C(=O)N[C@H](CC(=O)O)C(=O)COCc1c(Cl)cccc1Cl)C(C)C (mixture of isomers) [Compound 84b, (R,S)N-[N-(Acetyl)tyrosinyl-valinyl-alaninyl]-3-amino-5-(2,6-dichlorophenylmethyloxy)-4-oxo-pentanoic acid] | 0.5 |  | 
113 to 115 °C |  | C[C@H](NC(=O)c1nc(Cc2ccccc2)c[nH]1)C(=O)N[C@H](C=O)CC(=O)O [Compound 20b, (3S)3-[N-(4-Benzylimidazole-2-carbonyl)-L-alaninyl]amino-4-oxobutanoic acid] | 16.4 |  | 
102 to 104 °C |  | C[C@H](NC(=O)c1ncc(CCc2ccccc2)[nH]1)C(=O)N[C@H](C=O)CC(=O)O [Compound 20c, (3S)3-{N-[4-(2-Phenylethyl)imidazole-2-carbonyl]-L-alaninyl}amino-4-oxobutanoic acid] |  |  | 
101 to 103 °C |  | O=C[C@H](CC(=O)O)NC(=O)[C@@H]1CCCN1C(=O)c1nc(CCc2ccccc2)c[nH]1 [Compound 21c, (3S)3{N-[4-(2-Phenylethyl)imidazole-2-carbonyl]-L-prolinyl}amino-4-oxobutanoic acid] |  |  | 
91 to 94 °C |  | O=C[C@H](CC(=O)O)NC(=O)[C@@H]1CCCN1C(=O)c1nc(CCCc2ccccc2)c[nH]1 [Compound 21d, (3S)3-{N-[4-(3-Phenylpropyl)imidazole-2-carbonyl]-L-prolinyl}amino-4-oxo-butanoic acid] | 4.8 |  | 
101 to 105 °C |  | COc1ccc(CCCc2c[nH]c(C(=O)N3CCC[C@H]3C(=O)N[C@H](C=O)CC(=O)O)n2)cc1 [Compound 21e, (3S)3-{N-[4-[3-(4-Methoxyphenyl)propyl]imidazole-2-carbonyl]-L-prolinyl}amino-4-oxobutanoic acid] | 2.9 |  | 
114 to 118 °C |  | O=C[C@H](CC(=O)O)NC(=O)[C@@H]1CCCN1C(=O)c1nc(CCCc2ccc(O)cc2)c[nH]1 [Compound 21f, (3S)3-{N-[4-[3-(4-Hydroxyphenyl)propyl]imidazole-2-carbonyl]-L-prolinyl}amino-4-oxobutanoic acid] | 2.9 |  | 
120 to 124 °C |  | C[C@H](NC(=O)c1cnc(CCc2ccc(C(F)(F)F)cc2)[nH]1)C(=O)N[C@H](C=O)CC(=O)O [Compound 33b, (3S)3-{N-[2-(2-[4-Trifluoromethylphenyl]ethyl)imidazole-4-carbonyl]-L-alaninyl}-amino-4-oxobutanoic acid] | > 30 |  | Ki (ICE; Example 2 table): 10 µM; Ki (ICE; Example 4 table): 10 µM; IC50 ([1]; Homo sapiens, PBMC, Example 2 table): > 30 µM
109 to 112 °C |  | C[C@H](NC(=O)c1ccc(Cc2ccccc2)[nH]1)C(=O)N[C@H](C=O)CC(=O)O [Compound 36b, (3S)3-[N-(5-Benzylpyrrole-2-carbonyl)-L-alaninyl]amino-4-oxobutanoic acid] | 17 |  | 
87 to 90 °C |  | O=C[C@H](CC(=O)O)NC(=O)[C@@H]1CCCN2CCC[C@H](NC(=O)CCc3ccccc3)C(=O)N12 [Compound 47b, [3S,(1S,9S)]3-(Octahydro-10-oxo-9-(3-phenylpropionylamino)-6H-pyridazino-[1,2-a][1,2]diazepine-1-carboxamido)-4-oxobutanoic acid] | 1.8 |  | Ki (ICE; Example 4 table): 0.027 µM
120 to 125 °C |  | CCCCc1ccc(NC(=O)CCc2ccccc2)c(=O)n1CC(=O)N[C@H](C=O)CC(=O)O [Compound 54d, 3(S)3-(6-Butyl-1,2-dihydro-2-oxo-3-(3-phenylpropionyl)amino-1-pyridyl)acetylamino-4-oxobutanoic acid] |  |  | Ki (ICE; Example 4 table): 1 µM
129 to 138 °C |  | Cc1ccc(NC(=O)CCc2ccccc2)c(=O)n1CC(=O)N[C@H](C=O)CC(=O)O [Compound 54e, 3(S)3-(1,2-Dihydro-6-methyl-2-oxo-3-(3-phenylpropionyl)amino-1-pyridyl)acetylamino-4-oxobutanoic acid] |  |  | Ki (ICE; Example 4 table): 3.5 µM
140 to 145 °C (dec.) |  | O=C[C@H](CC(=O)O)NC(=O)Cn1cccc(NC(=O)CCc2ccccc2)c1=O [Compound 54g, 3(S)3-(1,2-Dihydro-2-oxo-3-(3-phenylpropionyl)amino-1-pyridyl)acetylamino-4-oxobutanoic acid] | > 20 |  | Ki (ICE; Example 2 table): 4.8 µM; Ki (ICE; Example 4 table): 4.8 µM
102 to 105 °C |  | O=C[C@H](CC(=O)O)NC(=O)Cn1c(Cc2ccccc2)ccc(NS(=O)(=O)CCc2ccccc2)c1=O [Compound 54j, 3(S)3-(6-Benzyl-1,2-dihydro-2-oxo-3-(2-phenylethane-sulphonyl)amino-1-pydridyl)acetylamino-4-oxobutanoic acid] |  | 10 | Ki (ICE; Example 4 table): 0.28 µM
116 to 120 °C (dec.) |  | O=C(O)CC(NC(=O)Cn1c(Cc2ccccc2)ccc(NC(=O)CCc2ccccc2)c1=O)C(=O)COC(=O)c1c(Cl)cccc1Cl (stereo not shown) [Compound 57b, N-2-(6-Benzyl-1,2-dihydro-2-oxo-3-(3-phenylpropionyl)amino-1-pyridyl)acetyl-3-amino-5-(2,6-dichloro-benzoyloxy)-4-oxo-pentanoic acid] |  | 2.2 | 
 | 0.34 | CC(C)[C@H](NC(=O)OCc1ccccc1)C(=O)N[C@@H](C)C(=O)N[C@@H](CC(=O)O)C(=O)c1ncc(-c2ccccc2)o1 [Compound 145] |  | 8.5 | 
 | 0.16 | CC(C)[C@H](NC(=O)OCc1ccccc1)C(=O)N[C@@H](C)C(=O)N[C@@H](CC(=O)O)C(=O)c1ncc(-c2c(Cl)cccc2Cl)o1 [Compound 146] |  | 3.8 | 
 | 0.26 | CC(C)[C@H](NC(=O)OCc1ccccc1)C(=O)N[C@@H](C)C(=O)N[C@@H](CC(=O)O)C(=O)c1ncc(-c2ccccc2Cl)o1 [Compound 147] |  | 8.5 | 
 | 6.3 | CC(C)[C@H](NC(=O)OCc1ccccc1)C(=O)N[C@@H](C)C(=O)N[C@@H](CC(=O)O)C(=O)c1nccs1 [Compound 148] |  | 30 | 
 | 14 | CC(C)[C@H](NC(=O)OCc1ccccc1)C(=O)N[C@@H](C)C(=O)N[C@@H](CC(=O)O)C(=O)c1cocn1 [Compound 149] |  | > 30 | 
 | 10 | CC(C)[C@H](NC(=O)OCc1ccccc1)C(=O)N[C@@H](C)C(=O)NC(CC(=O)O)C(=O)c1ncc(-c2ccccc2)[nH]1 (stereo partly shown) [Compound 150] |  | 30 | 
 | 13 | CC(C)[C@H](NC(=O)OCc1ccccc1)C(=O)N[C@@H](C)C(=O)NC(CC(=O)O)C(=O)c1ncc[nH]1 (stereo partly shown) [Compound 151] |  | 30 | 
 | 0.042 | CC(=O)N[C@@H](Cc1ccc(O)cc1)C(=O)N[C@H](C(=O)N[C@@H](C)C(=O)N[C@@H](CC(=O)O)C(=O)c1ncc(-c2c(Cl)cccc2Cl)s1)C(C)C [Compound 154] |  | 2.4 | 
 | 0.001 | CC(=O)N[C@@H](Cc1ccc(O)cc1)C(=O)N[C@H](C(=O)N1C[C@H](Oc2ccccc2)C[C@H]1C(=O)N[C@@H](CC(=O)O)C(=O)c1ncc(-c2c(Cl)cccc2Cl)o1)C(C)C [Compound 156] |  | 2.7 | 
 | 0.0017 | COc1cccc2nc(C(=O)[C@H](CC(=O)O)NC(=O)[C@@H]3C[C@@H](Oc4ccccc4)CN3C(=O)[C@@H](NC(=O)[C@H](Cc3ccc(O)cc3)NC(C)=O)C(C)C)oc12 [Compound 159] |  | 8 | 
 | 0.145 | CC(=O)N[C@H](C(=O)N1C[C@H](Oc2ccccc2)C[C@H]1C(=O)N[C@@H](CC(=O)O)C(=O)c1ncc(-c2c(Cl)cccc2Cl)o1)C(C)C [Compound 160] |  | 2.25 | 
 | 0.0028 | CC(=O)N[C@@H](Cc1ccc(O)cc1)C(=O)N[C@H](C(=O)N[C@@H](C)C(=O)N[C@@H](CC(=O)O)C(=O)c1ncc(-c2c(Cl)cccc2Cl)o1)C(C)C [Compound 163] |  | 1.2 | 
 |  | (3S)t-Butyl N-(N-acetyl-(S)-tyrosinyl-(S)-valinyl-(S)-alaninyl)-3-amino-4-(2-(4-methoxybenzoxazolyl))-4-oxobutanoate [Compound 69b] |  |  | Ki (ICE; Example 4 table): 0.05 µM; IC50 ([1]; Example 4 table): 0.745 µM
